These results are taken from BindingDB's records for patent US9598446 (Achillion Pharmaceuticals, 2017).

The target of the experiment is Complement factor D (Homo sapiens, UniProt P00746). Kind of experiment: Factor D Assay. The procedure:
Human factor D (purified from human serum, Complement Technology, Inc.) at 80 nM final concentration is incubated with test compound at various concentrations for 5 minutes at room temperature in 50 mM Tris, 1M NaCl, pH 7.5. A synthetic substrate Z-L-Lys-SBz1 and DTNB (Ellman's reagent) are added to final concentrations of 100 μM each. The increase in color is recorded at OD405 nm in a microplate in kinetic mode over 30 minutes with 30 second time points in a […]. IC50 values are calculated by non-linear regression from the percentage of inhibition of complement factor D activity as a function of test compound concentration.

Sequence of Complement factor D (P00746 whole entry): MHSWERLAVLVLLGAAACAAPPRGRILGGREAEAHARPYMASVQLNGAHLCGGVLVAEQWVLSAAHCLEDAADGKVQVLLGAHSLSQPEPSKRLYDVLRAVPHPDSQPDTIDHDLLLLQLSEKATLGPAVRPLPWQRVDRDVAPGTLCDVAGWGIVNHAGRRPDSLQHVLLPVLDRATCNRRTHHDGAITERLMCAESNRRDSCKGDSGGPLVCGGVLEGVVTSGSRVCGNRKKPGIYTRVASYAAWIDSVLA

For the compound `CC(=O)c1cn(CC(=O)N2C[C@H](F)C[C@H]2C(=O)Nc2cccc(-c3ccccc3Cl)c2F)c2ccc(N(COC(=O)C(C)(C)C)c3cncnc3)cc12` [US9598446, Compound 15], the IC50 entry is “in the range around 5.5 µM”.
